From PubChem BioAssay (NCI)
“And” between values parts separate entries of the source, which are not always exact repeats. Identical values can stand only once.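 Method: 48-hour compound exposure of cells in 96-well plates, five concentrations, linear interpolation of endpoints. Abbreviation: GI50, concentration required for 50% inhibition of growth. The concentration for full growth arrest is given as TGI.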

Legend:
Test in all cases: NCI anticancer screen, dose series, 48 h
[1] = tested on: 786-0 renal
[2] = tested on: OVCAR-4 ovarian
[3] = tested on: HCC-2998 colon
[4] = tested on: HS 578T breast
[5] = tested on: T-47D breast
[6] = tested on: DU-145 prostate
[7] = tested on: HOP-62 NSCLC
[8] = tested on: TK-10 renal
[9] = tested on: UACC-257 melanoma
[10] = tested on: U251 CNS

Structure (SMILES)	GI50 [1]	TGI [1]	GI50 [2]	TGI [2]	GI50 [3]	TGI [3]	GI50 [4]	TGI [4]	GI50 [5]	TGI [5]	GI50 [6]	TGI [6]	GI50 [7]	TGI [7]	GI50 [8]	TGI [8]	GI50 [9]	TGI [9]	GI50 [10]	TGI [10]
COC(=O)[C@@H](C)C[C@H](Cc1ccccc1)NC(=O)c1nc([C@@H](C[C@H](C(C)C)N(C)C(=O)[C@@H](NC(=O)[C@H]2CC(=O)CCN2C)C(C)C)OC(C)=O)sc1C(C)C	0.347 µM	8.82 µM	1.34 µM	> 16.7 µM	0.141 µM	> 16 µM	0.16 µM	> 3.85 µM	0.08 µM	> 16.7 µM	0.115 µM	> 5.55 µM	0.694 µM	> 16.7 µM	1.43 µM	> 16.7 µM	> 10.8 µM	> 16.7 µM	0.352 µM	> 10.5 µM
CCN(CC)CCN1C(=O)c2cccc3cc(N)cc(c23)C1=O		> 100 µM		48.3 µM		21.7 µM		> 100 µM		> 100 µM		> 100 µM		40.3 µM		> 100 µM		25.7 µM		> 100 µM
CC1(C)CC[C@]2(C(=O)O)CC[C@]3(C)C(=CC[C@@H]4[C@@]5(C)C/C(=C/c6cccnc6)[C@H](O)C(C)(C)[C@@H]5CC[C@]43C)[C@@H]2C1	11.2 µM	> 100 µM	40 µM	> 100 µM	11.4 µM	54.4 µM	21.8 µM	> 100 µM	9.89 µM	> 100 µM	10.7 µM	> 100 µM	13 µM	> 100 µM	21.7 µM	> 100 µM	24.9 µM	92.8 µM	5.59 µM	32.7 µM
CC[C@@]12CC(C(=O)OC)=C3Nc4ccccc4[C@@]34CCN(C[C@H]3O[C@H]31)[C@@H]24	> 100 µM	> 100 µM	82.5 µM	> 100 µM	> 100 µM	> 100 µM	25.4 µM	> 100 µM	27.5 µM	> 100 µM	> 100 µM	> 100 µM	94.9 µM	> 100 µM	> 100 µM	> 100 µM	66.7 µM	> 100 µM	43 µM	> 100 µM
O=C(/C=C/c1ccccc1)c1ccccn1		24.7 µM and 40.9 µM		54.8 µM and 47.2 µM		26.7 µM and 35.8 µM		77.3 µM		31.2 µM and 62.7 µM		24.8 µM and 40.5 µM	13.9 µM and 34.7 µM	29.3 µM and > 100 µM		31 µM and 36.9 µM		26.9 µM and 32.3 µM		30.5 µM and 35.9 µM
Nc1nc(N)c2nc(CNc3ccc(C(=O)NC(CCC(=O)O)C(=O)O)cc3)cnc2n1 (stereo unspecified)	< 0.01 µM	> 100 µM		> 100 µM	0.0329 µM and < 0.01 µM	> 100 µM	> 100 µM	> 100 µM	0.316 µM and 1.37 µM	> 100 µM	< 0.01 µM	> 100 µM	0.0408 µM and < 0.01 µM	> 100 µM	0.0736 µM	> 100 µM	0.0942 µM and 0.0723 µM	> 100 µM	0.0468 µM and < 0.0107 µM	> 100 µM
Nc1nc(-c2ccccn2)c(-c2ccc3ncccc3n2)s1	> 25 µM	> 25 µM	> 25 µM	> 25 µM	> 25 µM	> 25 µM	> 25 µM	> 25 µM	> 25 µM	> 25 µM	> 25 µM	> 25 µM	> 25 µM	> 25 µM	> 25 µM	> 25 µM	> 25 µM	> 25 µM	> 25 µM	> 25 µM
FC(F)(F)c1ccc(-c2cnc(-c3nn[nH]n3)nc2NC2CCCCCC2)cc1	> 10 µM	> 10 µM	> 10 µM	> 10 µM	> 10 µM	> 10 µM	> 10 µM	> 10 µM	> 10 µM	> 10 µM	> 10 µM	> 10 µM	> 10 µM	> 10 µM	> 10 µM	> 10 µM	> 10 µM	> 10 µM	> 10 µM	> 10 µM
CCCCCCCCCCCCNC(=O)N[C@H](C(=O)N[C@H]1/C=C/OCCNC(=O)/C=C/[C@H](C(C)C)NC1=O)C(C)C	40.1 µM	> 100 µM	3.61 µM	> 100 µM	12.9 µM	> 60.1 µM	3.22 µM	38.1 µM	3.14 µM	> 100 µM	14 µM	> 100 µM	8.5 µM	34 µM	10.3 µM	> 76.4 µM	20 µM	> 93.7 µM	2.15 µM	> 55.2 µM
O=C(CNC(=O)c1cccc2ccccc12)Nc1ccccc1Oc1ccc(O)cc1	1.04 µM	> 25 µM	2.8 µM	> 25 µM	8.98 µM	> 25 µM	1.34 µM	> 25 µM	1.54 µM	> 25 µM	1.15 µM	> 25 µM	1.35 µM	> 25 µM	16.9 µM	> 25 µM	> 25 µM	> 25 µM	1.41 µM	> 25 µM
CC(C)OC(=O)OCOP(=O)(OCOC(=O)OC(C)C)C1CCCN(O)C1=O (stereo unspecified)	0.407 µM	> 100 µM	2.32 µM	> 100 µM	2.07 µM	44.7 µM	0.586 µM	6.56 µM	1.98 µM	> 100 µM	3.83 µM	> 100 µM	2.12 µM	> 100 µM	1.54 µM	> 100 µM	49.1 µM	> 100 µM	1.76 µM	> 100 µM
COc1ccc2c(c1)OCC1c3cc(OC)ccc3OC21 (stereo unspecified)	> 100 µM	> 100 µM	39.2 µM	> 100 µM	5.42 µM	58 µM	> 100 µM	> 100 µM	35.4 µM	> 100 µM	> 100 µM	> 100 µM	95 µM	> 100 µM	> 100 µM	> 100 µM	> 100 µM	> 100 µM	58 µM	> 100 µM
CC(=O)Nc1ccc(S(=O)(=O)N2C(=O)CCC2C(=O)Nc2ccccc2)cc1 (stereo unspecified)	1.42 µM	13.3 µM	0.698 µM	10.8 µM	0.645 µM	5.62 µM	2.71 µM	36.2 µM	0.283 µM	14.6 µM	3.46 µM	19.2 µM	0.879 µM	13.4 µM	1.91 µM	13.5 µM	1.34 µM	17.2 µM	1.59 µM	13.3 µM
Nc1c2ccccc2nc2ccccc12	2.61 µM and 3.64 µM	11.4 µM and 14.7 µM	1.02 µM and 2.69 µM	6.38 µM and 7.3 µM	1.81 µM	3.93 µM	2.45 µM and 8.09 µM		1.62 µM and 2.99 µM	6.38 µM and 7.61 µM	2.02 µM and 2.57 µM	5.51 µM and 6.86 µM	1.66 µM and 3.66 µM	4.96 µM and 15.2 µM	2.07 µM and 4.61 µM		1.54 µM and 3.21 µM	3.06 µM and 10.1 µM	2.16 µM and 3.34 µM	8 µM and 13.1 µM
O=C(c1ccco1)c1c(C(F)(F)F)n([O-])c2cc(Cl)c(Cl)cc2[n+]1=O	0.241 µM	0.456 µM	4.17 µM	12.7 µM	0.606 µM	1.26 µM	0.706 µM	1.98 µM	7.03 µM	15.3 µM	0.787 µM	2.03 µM	0.316 µM	1 µM	0.943 µM	1.73 µM	0.761 µM	2.15 µM	0.705 µM	1.43 µM
CC(C)c1c(C(=O)Nc2ccccc2)c(-c2ccccc2)c(-c2ccc(F)cc2)n1CC[C@@H](O)C[C@@H](O)CC(=O)O	22.3 µM	> 81.2 µM	27.8 µM	> 100 µM	27.4 µM	> 71.5 µM	15.6 µM	> 100 µM	32.1 µM	> 100 µM	52.5 µM	> 100 µM	36 µM	> 100 µM	45.5 µM	> 100 µM	41.5 µM	> 100 µM	4.48 µM	> 100 µM
C=C1C(=O)O[C@H]2[C@H]1CC/C(COC(=O)NCc1ccc(Cn3c(=O)sn(CCCI)c3=O)cc1)=C\CC[C@@]1(C)O[C@@H]21	1.68 µM	3.71 µM	1.46 µM	3.11 µM	1.96 µM	3.71 µM	3.17 µM	14.5 µM	1.79 µM	3.84 µM	1.74 µM	3.16 µM	13.5 µM	27.4 µM	1.71 µM	3.35 µM	1.79 µM	3.67 µM	1.75 µM	3.68 µM
Cc1cc(C)c(CNC(=O)c2cc(Cl)c3c(c2C)O[C@@](C)(C2CCC(N(C)C)CC2)O3)c(=O)[nH]1 (stereo partly specified)	33.1 µM	> 100 µM	83.9 µM	> 100 µM	> 100 µM	> 100 µM	32.5 µM	> 100 µM	> 100 µM	> 100 µM	> 100 µM	> 100 µM	> 100 µM	> 100 µM	> 100 µM	> 100 µM	95.3 µM	> 100 µM	68 µM	> 100 µM
Nc1ncnc2c1ncn2C1SC(CO)C(O)C1O (stereo unspecified)	16.5 µM	37.3 µM	34.6 µM	> 100 µM	11.9 µM	34.5 µM	70.5 µM	> 100 µM	5.24 µM	26 µM	6.93 µM	26.7 µM	24.9 µM	91.2 µM	60.9 µM	> 100 µM	> 100 µM	> 100 µM	27 µM	> 100 µM
COc1cc(C(=O)N[C@@H]2CCCN(C)C2)ccc1Nc1ncc2c(n1)N(C1CCCC1)CC(C)(C)C(=O)N2C	0.308 µM	6.43 µM	10.8 µM	23.4 µM	0.0498 µM	14.7 µM	0.188 µM	19.9 µM	1.12 µM	17.8 µM	0.0488 µM	19.6 µM	0.0641 µM	10.2 µM	4.3 µM	20.9 µM	0.285 µM	2.63 µM	0.0465 µM	5.48 µM
CC/C(=C\c1ccc(N(C)C)cc1)c1ccncc1	6.31 µM	46.4 µM	8.67 µM	> 100 µM	6.58 µM	> 100 µM	4.13 µM	67.2 µM	4.16 µM	> 100 µM	9.47 µM	> 100 µM	4.33 µM	33.7 µM	12.9 µM	> 100 µM	11.6 µM	> 100 µM	4.82 µM	48.7 µM
N#CSc1c[nH]c2cccc(/C=C/C(=O)/C=C(O)/C=C/c3cccc4[nH]cc(SC#N)c34)c12	0.684 µM	2.14 µM	0.216 µM	1.72 µM	1.2 µM	4.56 µM	0.779 µM	9.48 µM	0.173 µM	2.27 µM	0.484 µM	0.986 µM	1.15 µM	4.35 µM	0.756 µM	2.51 µM	0.944 µM	3.38 µM	0.185 µM	1.14 µM
O=C(/C=C/c1c[nH]c2ccccc12)c1ccccc1O		25.5 µM		27 µM		27.1 µM		66.7 µM		7.29 µM		23.9 µM		28.1 µM		32.8 µM		31.5 µM		40.4 µM
N/C(=N\O)c1cn(C2OC(CO)C(O)C2O)c2ncnc(N)c12 (stereo unspecified)	0.374 µM	> 100 µM	0.177 µM	4.05 µM	0.212 µM	1.43 µM	0.263 µM	3.62 µM	0.108 µM		0.19 µM		0.468 µM	> 68.7 µM	0.204 µM	7.49 µM	0.177 µM	0.705 µM	0.185 µM	> 71.7 µM
CC1(C)CCC(c2ccc(Cl)cc2)=C(CN2CCN(c3ccc(C(=O)NS(=O)(=O)c4ccc(N[C@H](CCN5CCOCC5)CSc5ccccc5)c(S(=O)(=O)C(F)(F)F)c4)cc3)CC2)C1	1.88 µM	3.4 µM	1.22 µM	2.52 µM	0.343 µM	1.67 µM	2.66 µM	> 24.5 µM	2.05 µM	5.25 µM	2.76 µM	7.12 µM	1.73 µM	3.26 µM	1.28 µM	2.67 µM	1.63 µM	3.4 µM	1.9 µM	3.43 µM
